From ChEMBL document CHEMBL1126457, “Synthesis of novel targeted pro-prodrugs of anthracyclines potentially activated by a monoclonal antibody galactosidase conjugate (part 1)” (1992)

Test system: L1210
Assay: Compound was evaluated for cytotoxicity against L1210 murine leukemia cells
Format: functional, Mus musculus

Structure (SMILES)	Cytotoxicity
COc1cccc2c1C(=O)c1c(O)c3c(c(O)c1C2=O)C[C@@](O)(C(C)=O)C[C@@H]3O[C@H]1C[C@@H](NC(=O)OCc2ccccc2O[C@H]2O[C@@H](CO)[C@H](O)[C@H](O)[C@@H]2O)[C@H](O)[C@H](C)O1	>1 µg/mL
COc1cccc2c1C(=O)c1c(O)c3c(c(O)c1C2=O)C[C@@](O)(C(C)=O)C[C@@H]3O[C@H]1C[C@H](N)[C@H](O)[C@H](C)O1 [DAUNORUBICIN]	0.02 µg/mL
COc1cccc2c1C(=O)c1c(O)c3c(c(O)c1C2=O)C[C@@](O)(C(C)=O)C[C@@H]3O[C@H]1C[C@@H](NC(=O)OCc2ccc(O[C@H]3O[C@@H](CO)[C@H](O)[C@H](O)[C@@H]3O)cc2)[C@H](O)[C@H](C)O1	>1 µg/mL
